From patent publication US5741516A, “Sphingosomes for enhanced drug delivery” (priority 1995, dated 1998)
Where two headings read alike, the source gives them in different places.

Legend:
[1] = for animals that died after chemotherapy (in words): LD50 dose, within a few days; for Survival (%): 14 days
Excerpt: Female C57BL/6 mice (average weight 15.03 g), were used and housed under standard conditions. The animals received free access to both food and water throughout the experiment after a one week acclimatization period prior to experimental manipulation. The mice were 6 weeks old on the beginning of the experiment and placed randomly in 12 groups of 5 mice per group.

[2] = in vivo; cited from earlier work
[3] = Vincristine uptake into liposomes by pH gradient; type: physicochemical; details: drug/lipid 0.1/1 (wt/wt), 10 minutes at 60° C
Protocol: Uptake of vincristine into large unilamellar liposomes was achieved using a pH gradient-dependent procedure described by Mayer et al., Cancer Chemother. Pharmacol. 33:17-24 (1993), incorporated herein by reference. Briefly, a solution of vincristine sulfate (Oncovin®, Eli Lilly, Indianapolis, Ind.) was added to liposomes at a drug/lipid ratio of 0.1/1 (wt/wt) and equilibrated at 60° C. for 5 to 10 minutes. Vincristine uptake in response to a transmembrane pH gradient was initiated by the addition of 0.5M Na2 HPO4 to bring the external pH to 7.2-7.6.

A431 tumors = experiment: Antitumor efficacy against A431 tumors; type: in vivo, human A431 xenograft, SCID mice; details: vincristine 2.0 mg/kg i.v.
Protocol: Tumor loading and antitumor efficacy properties of DSPC/Chol and SM/Chol liposomal formulations of vincristine were determined in mice bearing solid human A431 squamous cell xenograft tumors. These experiments were undertaken to ensure that the positive results observed in the murine ascitic P388 tumor model were representative of other tumor types. SCID mice bearing 100-200 mg solid human A431 tumors were injected i.v. with free vincristine or with liposomes of either DSPC/Chol or SM/Chol containing vincristine. Vincristine encapsulated DSPC/Chol and SM/Chol liposomes were prepared as in Example II. […] As observed in BDF1 mice bearing P388 tumors, the amount of vincristine remaining in the circulation in SM/Chol liposomes at 24 hours after injection was approximately 3-fold greater than for vincristine encapsulated in DSPC/Chol liposomes (FIG. 11A).
The antitumor efficacy of free and liposomal vincristine against A431 was closely correlated with vincristine accumulation at the tumor site (FIG. 12). […] This therapy was further enhanced by a single treatment of vincristine encapsulated in SM/Chol liposomes. […] Of the five mice (total of 10 tumors) treated with SM/Chol liposomal vincristine, 1 animal was terminated early due to tumor ulceration, not due to tumor growth.

[4] = Bioavailability of liposomal swainsonine; type: in vivo, Balb/c mice; details: p.o. vs i.v.
Protocol: Female Balb/c mice, 5-6 weeks of age, were housed under standard conditions. […] Swainsonine (Toronto Res. Chem.) was radiolabeled with tritium. Tritiated swainsonine was administered as a lipid-based formulation (L-Im) and as an aqueous formulation containing the free drug (F-Im). Tritiated swainsonine was loaded into sphingomyelin/cholesterol (Avanti Polar Labs) sphingosomes using a citrate buffer pH 2 gradient at a drug-to-lipid ratio of 0.2:1 (mol:mol) and with an efficiency of loading of 80%. Two hundred microliters of the lipid and aqueous swainsonine formulations were given orally by gavage (p.o.), intraperitoneally (i.p.), or intravenously (i.v.). Fifty microliter blood samples were collected by retroorbital bleeds at 1, 3, 6, and 24 hours after administration. The blood samples were bleached and then counted in a scintillation counter. Results were expressed as the percentage of the administered dose in the blood at various time-points after administration.

bone marrow [5] = experiment: Bone marrow cellularity after chemotherapy; type: in vivo, C57BL/6 mice; details: 14 days after chemotherapy; orally or i.p., vs GM-CSF i.p. 10 days
Protocol: On the 15th day after the initial chemotherapeutic dose, 4 mice from each group of the immunomodulation study (Example 6) were randomly sacrificed and up to 1 ml of blood was obtained by cardiac puncture. Circulating peripheral WBCs were counted, blood smears (for neutrophil counts) were made and plasma samples were collected and tested for cytokine production (IL-1, IL-2, TNF). Blood cytokine levels (TNF, IL-1, and IL-2) were assayed by commercially available assay kits. The spleen, thymus and bone marrow were removed and single cell suspensions were prepared. The cellularity of these lymphoid organs was assessed by trypan blue exclusion test.

TNF-α = experiment: TNF production by mitogen-stimulated splenocytes; type: in vivo, C57BL/6 mice; details: vs chemotherapy-treated and PBS controls, FIG. 10A
Protocol: (§1) Cells from spleen, thymus and bone marrow were tested for their ability to respond to stimulation from different mitogens: ConA (1, 2.5 and 5 μg/ml) (Sigma), phytohemagglutinin (PHA) (1, and 2.5 μg/ml) (Sigma) and LPS (2.5 and 5 μg/ml) (Difco). After 72 hours of stimulation the proliferative response was measured using CellTiter 96 (Promega). Simultaneously, mitogen stimulated splenocytes were set up for cytokine production after ConA (2.5 μg/ml) and lipopolysaccharide (LPS) (2.5 μg/ml) stimulation. The supernatants were collected after 24 hr. and 48 hr. and tested for Tumor Necrosis Factor-α (TNF-α) and Interleukin-2 (IL-2) production using the direct ELISA method. Supernatants from unstimulated cells served as controls. Results are expressed as pg/ml of TNF-α (sensitivity of the assay is <25 pg/ml) or IL-2 (sensitivity of the assay is <3 pg/ml).

IL-2 = IL-2 production by mitogen-stimulated splenocytes; type: in vivo, C57BL/6 mice; details: vs chemotherapy-treated and PBS controls, FIG. 10B
Protocol: as §1

[6] = In vitro oral stability in gastric contents; type: physicochemical; details: simulated gastric contents; hydrochloric acid (pH2) with pepsin; up to 72 hours
Protocol: To establish an advantage for the oral route of administration, swainsonine was incubated in vitro in simulated gastric contents for various periods of time (1, 2, 4, 24, 48 and 72 hrs.) and the "oral stability" of swainsonine was determined. Swainsonine was also incubated in hydrochloric acid (pH2) containing the main gastric digestive enzyme, pepsin.

bone marrow [7] = details: cited from earlier work
[8] = test system: IL-1, IL-2, TNF, GM-CSF and interferons; details: cited from earlier work
tumor cells = details: in vitro; cited from earlier work
[9] = test system: colon cancer and melanoma cancers; details: combined with interferon, in vivo; cited from earlier work

COc1cccc2c1C(=O)c1c(O)c3c(c(O)c1C2=O)C[C@@](O)(C(=O)CO)C[C@@H]3O[C@H]1C[C@H](N)[C@H](O)[C@H](C)O1 [DOX, Doxorubicin]
animals that died after chemotherapy (in words) [1]: half | Survival (%) ([1]; i.p.): 60%

CN(Cc1cnc2nc(N)nc(N)c2n1)c1ccc(C(=O)N[C@@H](CCC(=O)O)C(=O)O)cc1 [MTX, methotrexate]
animals that died after chemotherapy (in words) [1]: Half | Survival (%) ([1]; i.p.): 40%

sphingomyelin
circulation lifetime of liposomes [2]: increase in the circulation lifetime of liposomes

CC[C@]1(O)C[C@H]2CN(CCc3c([nH]c4ccccc34)[C@@](C(=O)OC)(c3cc4c(cc3OC)N(C=O)[C@H]3[C@@](O)(C(=O)OC)[C@H](OC(C)=O)[C@]5(CC)C=CCN6CC[C@]43[C@@H]65)C2)C1 [vincristine]
trapping efficiency [3]: approximately 95% | delay in tumor growth / change in tumor size (A431 tumors): brief delay in tumor growth | time to 100% increase in tumor weight (A431 tumors): 6 to 8 days | time to required termination (A431 tumors): 10 to 12 days

O[C@H]1[C@H]2[C@H](O)CCCN2C[C@H]1O [swainsonine]
oral bioavailability compared to swainsonine administered intravenously [4]: 60-65% | bone marrow cellularity (bone marrow [5]): performed as effectively as GM-CSF | TNF level in stimulated splenocytes (TNF-α): significantly elevated | IL-2 level in stimulated splenocytes (IL-2): significantly elevated | in vitro oral stability [6]: stable under these harsh conditions for up to 72 hours | Survival (%) ([1]; i.p.): 100% | Survival (%) ([1]; p.o.): 100% | survival beyond 2 weeks after chemotherapy (in words) ([1]; swainsonine intravenously or i.p. / GM-CSF i.p., 10 days, after Mtx or Dox): all animals | survival after cytotoxic treatment (in words) ([1]; swainsonine p.o. 10 days after Mtx or Dox): all but one animal | bone marrow proliferation (bone marrow [7]): has the capacity to stimulate bone marrow proliferation | production of multiple cytokines [8]: stimulates the production of multiple cytokines | B- and T-cell immunity, natural killer T-cell and macrophage-induced destruction of tumor cells (tumor cells): induces B- and T-cell immunity, natural killer T-cell and macrophage-induced destruction of tumor cells in vitro | direct anti-tumor activity [9]: direct anti-tumor activity against colon cancer and melanoma cancers
